Inhibition halo diameter and zone of inhibition data for 7 compounds are collected here from patent publication US20070160725A1, “Use of extracts and compounds of allium-genus plants as preservatives in the food and agri-food industries” (MOUSALA, S., L., priority 2004, published 2007).

Holding throughout (assay): agar diffusion, inhibition halo
What all share (format): cell-based
On the technique in general: A growth-free zone around the sample is the usual read-out of agar diffusion tests.

For experiment [1], the system named is Trichoderma aureoviride CECT 20102. The method, then: (§1) In order to evaluate the antimicrobial activity the agar diffusion technique with cellulose discs of 6 mm in diameter impregnated with the different active ingredient testing doses was used.
(§2) Antifungal capacity was assessed against suspensions of […], harvested from pure cultures of the selected molds and against suspensions of 10^7 cells/ml for the case of yeasts. The culture medium used was the 2% Sabouraud-glucose medium (Merck).
(§3) After incubating the culture dishes inoculated with the different organisms at the corresponding temperatures, the microbial inhibition halos that appeared were measured, and said measurement includes the 6 mm diameter of the cellulose discs.

In experiment [2] the test system is Rhizopus stolonifer CECT 2344. As for the experimental part: as §1, §2, §3
The subject of experiment [3] is Geotrichum candidum CECT 1902. As for the experimental part:
as §1, §2, §3

In experiment [4] the test system is Penicillium italicum CECT 2294. The settings on record: for zone of inhibition at 4000 ppm / zone of inhibition at 6000 ppm / zone of inhibition at 1000 ppm / zone of inhibition at 125 ppm / zone of inhibition at 250 ppm / zone of inhibition at 500 ppm: Penicillium italicum; for zone of inhibition at 4000 ppm / zone of inhibition at 6000 ppm: CECT2294, read-out: inhibition halo diameter; for zone of inhibition at 1000 ppm / zone of inhibition at 125 ppm / zone of inhibition at 250 ppm / zone of inhibition at 500 ppm: CECT2294, read-out: inhibition halo diameter. As for the experimental part:
as §1, §2, §3

The test system of experiment [5] is Staphylococcus aureus, isolated from hamburgers. The conditions noted are these: 1000 ppm. As for the experimental part:
as §1
(§4) Antibacterial capacity was assessed against suspensions of 10^6 cells/ml, prepared from pure young cultures of each one of the strains to be tested. The culture medium used was Müller-Hinton medium (Merck).
as §3

Experiment [6] has as its system Bacillus subtilis, isolated from paprika. The method, then:
as §1, §4, §3

For experiment [7], the system named is Salmonella typhimurium, ATCC 13311. The conditions noted are these: 1000 ppm. The method, then: as §1, §4, §3
In experiment [8] the test system is Mucor plumbeus, isolated from cheese. The conditions noted are these: 1000 ppm. The method, then: as §1, §2, §3
The test system of experiment [9] is Listeria monocytogenes, ATCC 15313. The method, then:
as §1, §4, §3

Experiment [10] deals with Escherichia coli, CECT 515. The method, then:
as §1, §4, §3

In experiment [11] the test system is Bacillus cereus, CECT 1178. As for the experimental part:
as §1, §4, §3

Experiment [12] deals with Aspergillus terreus, isolated from the environment of the cheese maturation chamber. The method, then:
as §1, §2, §3

The test system of experiment [13] is Aspergillus niger, CECT 2700. As for the experimental part: as §1, §2, §3
The subject of experiment [14] is Penicillium sp, isolated from cheese. The method, then: as §1, §2, §3
In experiment [15] the test system is Candida krusei, isolated from cheese. The method, then:
as §1, §2, §3

Setting [16] is: 1000 ppm (active ingredient, dose in ppm).
The mark [17] stands for this setting: 2000 ppm (active ingredient, dose in ppm).
The mark [18] stands for this setting: 4000 ppm (active ingredient, dose in ppm).
Setting [19] is: 6000 ppm (active ingredient, dose in ppm).

On to `[Na+].[O-]c1ccccc1-c1ccccc1` [30% Na o-phenylphenate, Na o-phenylphenate], for which the inhibition halo diameter in experiment [1] (setting [16]) came to 0 mm; in [1] (setting [17]) it was 10 mm; in [1] (setting [18]) it was 20 mm; in experiment [1] (setting [19]), 35 mm; in experiment [2] (setting [16]), 0 mm; in experiment [2] (setting [17]), 0 mm. Further, the inhibition halo diameter in experiment [2] (setting [18]) is 0 mm; in [2] (setting [19]), 0 mm; in experiment [3] (setting [16]), 7 mm; in experiment [3] (setting [17]), 30 mm; in experiment [3] (setting [18]) it was 35 mm; in experiment [3] (setting [19]), 40 mm. The inhibition halo diameter is 20 mm in [4] (setting [16]), 30 mm in [4] (setting [17]), 33 mm in [4] (setting [18]) and 53 mm in experiment [4] (setting [19]).
With `c1ccc(-c2ccccc2)cc1` [Biphenyl], the inhibition halo diameter in [1] (setting [18]), in experiment [1] (setting [19]), in experiment [2] (setting [18]), in experiment [2] (setting [19]), in [3] (setting [18]) and in [3] (setting [19]) was 0 mm in each case. For the same compound, in experiment [4], the zone of inhibition at 4000 ppm amounted to 7 mm. Moreover, the zone of inhibition at 6000 ppm in [4] was 8 mm.
For `CCCCS[S+]([O-])CCCC` (stereo not shown) [BTS, n-butyl n-butyl thiosulfinate], the inhibition halo diameter amounted to 45 mm in [5], 60 mm in [6] (1000 ppm), 20 mm in experiment [7] and 17 mm in experiment [8]. For the same compound, the zone of inhibition at 1000 ppm in experiment [4] worked out at 67 mm.
`Oc1ccccc1-c1ccccc1` [o-Phenyl phenol]: the inhibition halo diameter stood at 40 mm in experiment [1] (setting [18]); 42 mm in [1] (setting [19]); 14 mm in experiment [2] (setting [18]); 15 mm in experiment [2] (setting [19]); 45 mm in experiment [3] (setting [18]); 47 mm in [3] (setting [19]). Moreover, the zone of inhibition at 4000 ppm in experiment [4] was determined as 45 mm. Further, in experiment [4], the zone of inhibition at 6000 ppm turned out to be 45 mm.
As for `C=CC1CC=CSS1` (stereo not shown) [3-vinyl-4H-1,2-dithiin], the inhibition halo diameter in experiment [9] (125 ppm), in [9] (250 ppm), in [9] (500 ppm), in [9] (1000 ppm), in [10] (125 ppm) and in [10] (250 ppm) was 0 mm each time. The inhibition halo diameter in [10] (500 ppm) was determined as 0 mm; in experiment [10] (1000 ppm), 0 mm; in [6] (125 ppm), 8 mm; in experiment [6] (250 ppm), 9 mm; in experiment [6] (500 ppm), 10 mm; in experiment [6] (1000 ppm) it was 12 mm. Also, the inhibition halo diameter in experiment [11] (125 ppm) was determined as 7 mm; in experiment [11] (250 ppm), 8 mm; in experiment [11] (500 ppm) it was 8 mm; in [11] (1000 ppm), 10 mm; in [12] (125 ppm), 0 mm; in [12] (250 ppm), 0 mm. The inhibition halo diameter in experiment [12] (500 ppm) is 0 mm; in experiment [12] (1000 ppm), 0 mm; in experiment [13] (125 ppm), 0 mm; in [13] (250 ppm), 7 mm; in [13] (500 ppm), 10 mm; in [13] (1000 ppm), 14 mm. Moreover, the inhibition halo diameter in experiment [14] (125 ppm) is listed as 0 mm; in [14] (250 ppm), 6 mm; in experiment [14] (500 ppm), 7 mm; in experiment [14] (1000 ppm), 10 mm; in [3] (125 ppm), 0 mm; in [3] (250 ppm), 0 mm. Also, the inhibition halo diameter in [3] (500 ppm) was 0 mm; in experiment [3] (1000 ppm), 0 mm; in experiment [15] (125 ppm) it was 0 mm; in experiment [15] (250 ppm), 7 mm; in experiment [15] (500 ppm) it was 8 mm; in [15] (1000 ppm), 10 mm. In addition, in experiment [4], the zone of inhibition at 125 ppm was found to be 0 mm. For the same compound, the zone of inhibition at 250 ppm in experiment [4] was 0 mm. For the same compound, the zone of inhibition at 500 ppm in experiment [4] is 0 mm. The zone of inhibition at 1000 ppm in experiment [4] was determined as 0 mm.
`C=CC1SC=CCS1` (stereo not shown) [2-vinyl-4H-1,3-dithiin]: the inhibition halo diameter in [9] (125 ppm) turned out to be 0 mm; in [9] (250 ppm), 7 mm; in experiment [9] (500 ppm), 8 mm; in experiment [9] (1000 ppm), 10 mm; in experiment [10] (125 ppm), 0 mm; in experiment [10] (250 ppm) it was 0 mm. The inhibition halo diameter in experiment [10] (500 ppm) was 0 mm; in experiment [10] (1000 ppm), 0 mm; in [6] (125 ppm) it was 7 mm; in [6] (250 ppm), 10 mm; in experiment [6] (500 ppm), 13 mm; in experiment [6] (1000 ppm), 15 mm. Also, the inhibition halo diameter in experiment [11] (125 ppm) is 7 mm; in experiment [11] (250 ppm) it was 9 mm; in experiment [11] (500 ppm), 10 mm; in experiment [11] (1000 ppm), 12 mm; in experiment [12] (125 ppm), 0 mm; in experiment [12] (250 ppm), 0 mm. In addition, the inhibition halo diameter is listed as 6 mm in experiment [12] (500 ppm); 7 mm in [12] (1000 ppm); 7 mm in experiment [13] (125 ppm); 7 mm in experiment [13] (250 ppm); 10 mm in [13] (500 ppm); 15 mm in experiment [13] (1000 ppm). Further, the inhibition halo diameter in experiment [14] (125 ppm) amounted to 0 mm; in [14] (250 ppm), 8 mm; in experiment [14] (500 ppm), 10 mm; in experiment [14] (1000 ppm) it was 12 mm; in [3] (125 ppm) it was 7 mm; in [3] (250 ppm) it was 7 mm. The inhibition halo diameter in experiment [3] (500 ppm) is on record as 10 mm; in experiment [3] (1000 ppm), 15 mm; in [15] (125 ppm) it was 7 mm; in experiment [15] (250 ppm) it was 10 mm; in experiment [15] (500 ppm), 10 mm; in [15] (1000 ppm), 12 mm. For the same compound, the zone of inhibition at 125 ppm in experiment [4] was 0 mm. The zone of inhibition at 250 ppm in [4] is 0 mm. The zone of inhibition at 500 ppm in experiment [4] was determined as 8 mm. The zone of inhibition at 1000 ppm in [4] is 10 mm.
As to `C=CCSSC=CC[S+]([O-])CC=C` (mixture of isomers) [Ajoene, (E)-(Z)-ajoene], the inhibition halo diameter in experiment [9] (125 ppm) is 16 mm; in experiment [9] (250 ppm) it was 18 mm; in [9] (500 ppm) it was 20 mm; in [9] (1000 ppm) it was 30 mm; in experiment [10] (125 ppm), 7 mm; in experiment [10] (250 ppm), 9 mm. The inhibition halo diameter worked out at 11 mm in experiment [10] (500 ppm); 13 mm in experiment [10] (1000 ppm); 36 mm in experiment [6] (125 ppm); 40 mm in [6] (250 ppm); 54 mm in [6] (500 ppm); 62 mm in experiment [6] (1000 ppm). Moreover, the inhibition halo diameter in experiment [11] (125 ppm) is 18 mm; in experiment [11] (250 ppm), 24 mm; in [11] (500 ppm) it was 30 mm; in experiment [11] (1000 ppm), 36 mm; in [12] (125 ppm), 18 mm; in [12] (250 ppm) it was 21 mm. The inhibition halo diameter in [12] (500 ppm) was found to be 32 mm; in [12] (1000 ppm), 40 mm; in experiment [13] (125 ppm) it was 11 mm; in experiment [13] (250 ppm) it was 13 mm; in [13] (500 ppm), 24 mm; in experiment [13] (1000 ppm) it was 27 mm. Moreover, the inhibition halo diameter worked out at 12 mm in experiment [14] (125 ppm); 27 mm in experiment [14] (250 ppm); 40 mm in experiment [14] (500 ppm); 40 mm in experiment [14] (1000 ppm); 14 mm in experiment [3] (125 ppm); 20 mm in experiment [3] (250 ppm). The inhibition halo diameter was 26 mm in experiment [3] (500 ppm); 34 mm in experiment [3] (1000 ppm); 26 mm in experiment [15] (125 ppm); 32 mm in [15] (250 ppm); 38 mm in experiment [15] (500 ppm); 42 mm in experiment [15] (1000 ppm). In addition, the zone of inhibition at 125 ppm in [4] worked out at 18 mm. Moreover, in experiment [4], the zone of inhibition at 250 ppm worked out at 24 mm. Moreover, in experiment [4], the zone of inhibition at 500 ppm came out at 44 mm. Besides, the zone of inhibition at 1000 ppm in [4] was determined as 50 mm.
